Values after ≈ are worked out from the molar mass of the structure shown. “Also recorded” adds a separate entry of the source. Where two headings read alike, the source gives them in different places.
Columns and labels:
[1] = biological target: Recombinant S. aureus LtaSSA expressed in E. coli (Staphylococcus aureus, UniProt Q2G093); assay type: cell-based
S. aureus RN4220 (MSSA) = experiment: microbe, parasite or virus in culture; assay type: cell-based
E. faecium - VRE TX0016 = experiment: microbe, parasite or virus in culture; assay type: cell-based
B. anthracis Sterne = experiment: microbe, parasite or virus in culture; assay type: cell-based
E. faecalis - VRE V583 = experiment: microbe, parasite or virus in culture; assay type: cell-based
S. aureus - MRSA USA300 = experiment: microbe, parasite or virus in culture; assay type: cell-based
S. aureus RN4220 [2] = experiment: Growth of S. aureus culture with sub-lethal compound (OD600); conditions: 1 μM compound, until control culture OD600 1.0
[3] = system: LTA production in S. aureus; experiment: Inhibition of LTA synthesis in S. aureus (immunoblot); conditions: sub-lethal concentrations of compound
S. aureus RN4220 [4] = experiment: High throughput screen for growth inhibitors, 384-well; assay type: cell-based; conditions: Staphylococcus aureus, positive control, vs medium alone
Experimental: The antibiotic sensitive strain S. aureus RN4220 was used to screen for small molecule growth inhibitors in a high throughput-screening assay using 384-well microplates. Cation-adjusted Hinton Mueller II broth supplemented with 0.005% Tween-80 was inoculated with a single colony of S. aureus RN4220. Following overnight incubation, the culture was diluted 1:100 in fresh medium and incubation was continued until the bacterial suspension reached an optical density at 600 nm (OD600) of 0.6 corresponding to a bacterial titer of 5×10^8 colony forming units (CFU) per ml. An aliquot of this culture was diluted 1:400 with fresh medium and stored on ice until it could be dispensed in 384-well plates. Small-scale experiments were conducted to determine the Z′-factor (1-[(3SD^−)+(3SD^+)/(Ave^−)−(Ave^+)]) used commonly for quality assessment of raw data sets generated in high-throughput screening. In this formula, (SD^+/−) and (Ave^+/−) represent standard deviation and average of positive and negative controls. […] The OD600 in each well was recorded after 20 hours incubation. […] After 20 hours, the OD600 was measured using a plate reader in absorbance mode. […]
S. aureus lacking the ltaS gene is unable to grow at temperatures […]. […] The quality of the screen was assessed for every assay plate with the Z′-factor, a measure for data variability within the dynamic range of the assay (Zhang et al. 1999). […]

[5] = 37° C., 18-22 hours, OD600, sigmoidal fit, read-out: IC50

Recombinant S. aureus LtaSSA expressed in E. coli, sequence (Q2G093 whole entry): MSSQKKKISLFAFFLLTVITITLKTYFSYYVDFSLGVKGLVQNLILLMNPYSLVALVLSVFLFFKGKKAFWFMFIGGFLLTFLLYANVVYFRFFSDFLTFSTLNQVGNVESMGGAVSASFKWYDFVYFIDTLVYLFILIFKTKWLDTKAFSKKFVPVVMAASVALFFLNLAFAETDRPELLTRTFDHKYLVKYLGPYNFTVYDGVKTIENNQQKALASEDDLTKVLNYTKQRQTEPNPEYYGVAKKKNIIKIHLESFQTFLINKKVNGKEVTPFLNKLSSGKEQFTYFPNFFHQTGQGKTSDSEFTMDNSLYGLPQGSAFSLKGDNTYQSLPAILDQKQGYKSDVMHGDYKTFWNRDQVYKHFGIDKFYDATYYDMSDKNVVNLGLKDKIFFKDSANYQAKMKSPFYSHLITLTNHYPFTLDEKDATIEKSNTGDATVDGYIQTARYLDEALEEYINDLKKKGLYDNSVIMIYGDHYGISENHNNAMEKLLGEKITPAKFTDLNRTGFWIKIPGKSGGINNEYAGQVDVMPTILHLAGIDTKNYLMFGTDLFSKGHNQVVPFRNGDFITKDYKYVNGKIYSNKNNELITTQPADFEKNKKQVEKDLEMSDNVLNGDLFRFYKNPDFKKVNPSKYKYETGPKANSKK

| SMILES | IC50 (S. aureus RN4220 (MSSA); Staphylococcus aureus, MSSA) [µM] | MIC (S. aureus RN4220 (MSSA); Staphylococcus aureus, MSSA) [µM] | IC50 (B. anthracis Sterne; Bacillus anthracis) [µM] | MIC (B. anthracis Sterne; Bacillus anthracis) [µM] | further results |
| --- | --- | --- | --- | --- | --- |
| CC1CCCCN1S(=O)(=O)c1ccc(C(=O)Nc2nnc(-c3cccs3)o2)cc1 (stereo not shown) [Compound 1650-M01, 4-(2-methylpiperidin-1-ylsulfonyl)-N-(5-(thiophen-2-yl)-1,3,4-oxadiazol-2-yl)benzamide] | 7.1 | 25 (≈ 10.8 µg/mL) | 11.1 | 25 (≈ 10.8 µg/mL) | production of LTA promoted by plasmid encoded LtaSSA [1]: abrogated; IC50 (E. faecium - VRE TX0016; Enterococcus faecium, VRE): 19.4 µM; MIC (E. faecium - VRE TX0016; Enterococcus faecium, VRE): 100 µM (≈ 43.3 µg/mL); IC50 (E. faecalis - VRE V583; Enterococcus faecalis, VRE): 36.7 µM; MIC (E. faecalis - VRE V583; Enterococcus faecalis, VRE): 100 µM (≈ 43.3 µg/mL); MIC (S. aureus - MRSA USA300; 37° C., 18-22 hours, OD600): 25.0 µM (≈ 10.8 µg/mL); IC50 (S. aureus - MRSA USA300; Staphylococcus aureus): 8.4 µM; MIC (S. aureus - MRSA USA300; Staphylococcus aureus): 25 µM (≈ 10.8 µg/mL) |
| O=C(COC(=O)Cc1coc2cc3c(cc12)CCC3)Nc1nnc(-c2ccccc2)o1 [Compound 1771-7, 2-oxo-2-(5-phenyl-1,3,4-oxadiazol-2-ylamino)ethyl 2-(6,7-dihydro-5H-indeno[5,6-b]furan-3-yl)acetate] | 27.7 | 50 (≈ 20.9 µg/mL) | 24.1 | 50 (≈ 20.9 µg/mL) | – |
| COc1cc(OC)cc(-c2nnc(NC(=O)c3ccc(S(=O)(=O)N(C)c4ccccc4)cc3)o2)c1 [Compound 1650-I01, N-(5-(3,5-dimethoxyphenyl)-1,3,4-oxadiazol-2-yl)-4-(N-methyl-N-henylsulfamoyl)benzamide] | – | – | – | – | reduced growth of staphylococci (S. aureus RN4220 [2]): 50%; LTA production (immunoblot α-LTA) [3]: affect the production of LTA; also recorded: reduced; production of LTA promoted by plasmid encoded LtaSSA [1]: abrogated; MIC (S. aureus RN4220 (MSSA); 37° C., 18-22 hours, OD600): 3.1 µM (≈ 1.53 µg/mL); IC50 (S. aureus RN4220 (MSSA); [5]): 1.3 µM; MIC (E. faecium - VRE TX0016; 37° C., 18-22 hours, OD600): 100.0 µM (≈ 49.5 µg/mL); IC50 (E. faecium - VRE TX0016; [5]): 14.6 µM; MIC (B. anthracis Sterne; 37° C., 18-22 hours, OD600): 3.1 µM (≈ 1.53 µg/mL); IC50 (B. anthracis Sterne; [5]): 1.5 µM; MIC (E. faecalis - VRE V583; 37° C., 18-22 hours, OD600): 100.0 µM (≈ 49.5 µg/mL); IC50 (E. faecalis - VRE V583; [5]): 55.6 µM; MIC (S. aureus - MRSA USA300; 37° C., 18-22 hours, OD600): 6.2 µM (≈ 3.07 µg/mL); IC50 (S. aureus - MRSA USA300; [5]): 1.7 µM |
| CNC(=O)COC(=O)Cc1coc2ccc3ccccc3c12 [Compound 1771-2, 2-(methylamino)-2-oxoethyl 2-(naphtho[2,1-b]furan-1-yl)acetate] | > 400 | > 400 | > 400 | > 400 | – |
| COc1cccc(-c2nnc(NC(=O)c3ccc(S(=O)(=O)N(Cc4ccccc4)C(C)C)cc3)o2)c1 [4-(N-benzyl-N-isopropylsulfamoyl)-N-(5-(3-methoxyphenyl)-1,3,4-oxadiazol-2-yl)benzamide] | 1.2 | 3.1 (≈ 1.57 µg/mL) | 1 | 1.6 (≈ 0.811 µg/mL) | reduced growth of staphylococci (S. aureus RN4220 [2]): 75%; LTA production (immunoblot α-LTA) [3]: affect the production of LTA; also recorded: reduced; production of LTA promoted by plasmid encoded LtaSSA [1]: abrogated; IC50 (E. faecium - VRE TX0016; Enterococcus faecium, VRE): 7.3 µM; MIC (E. faecium - VRE TX0016; Enterococcus faecium, VRE): 50 µM (≈ 25.3 µg/mL); IC50 (E. faecalis - VRE V583; Enterococcus faecalis, VRE): 18.5 µM; MIC (E. faecalis - VRE V583; Enterococcus faecalis, VRE): 50 µM (≈ 25.3 µg/mL); IC50 (S. aureus - MRSA USA300; Staphylococcus aureus): 1.3 µM; MIC (S. aureus - MRSA USA300; Staphylococcus aureus): 3.1 µM (≈ 1.57 µg/mL) |
| Cc1cc2occ(CC(=O)OCC(=O)Nc3nnc(-c4ccccc4)o3)c2cc1C [Compound 1771-6, 2-oxo-2-(5-phenyl-1,3,4-oxadiazol-2-ylamino)ethyl 2-(5,6-dimethylbenzofuran-3-yl)acetate] | 15.2 | 50 (≈ 20.3 µg/mL) | 14.8 | 25 (≈ 10.1 µg/mL) | – |
| O=C(COC(=O)Cc1ccccc1)Nc1nnc(-c2ccccc2)o1 [Compound 1771-4, 2-oxo-2-(5-phenyl-1,3,4-oxadiazol-2-ylamino)ethyl 2-phenylacetate] | 242 | > 400 | 224 | > 400 | – |
| O=C(N[C@H](CO)[C@H](O)c1ccc([N+](=O)[O-])cc1)C(Cl)Cl [chloramphenicol] | – | – | – | – | inhibition at 80 µM (S. aureus RN4220 [4]): 100% |
| CC(=O)COC(=O)Cc1coc2ccc3ccccc3c12 [Compound 1771-1, 2-oxopropyl 2-(naphtho[2,1-b]furan-1-yl)acetate] | > 400 | > 400 | 169 | > 400 | – |
| CC(NC(=O)COC(=O)Cc1coc2ccc3ccccc3c12)c1ccccc1 (stereo not shown) [Compound 1771-3, 2-oxo-2-(1-phenylethylamino)ethyl 2-(naphtho[2,1-b]furan-1-yl)acetate] | > 400 | > 400 | > 400 | > 400 | – |
| O=C(COC(=O)Cc1c[nH]c2ccccc12)Nc1nnc(-c2ccccc2)o1 [Compound 1771-5, 2-oxo-2-(5-phenyl-1,3,4-oxadiazol-2-ylamino)ethyl 2-(1H-indol-3-yl)acetate] | 85.6 | > 400 | 88.1 | 200 (≈ 75.3 µg/mL) | – |
